Reference: patent US20140121236A1, “Compositions and Methods for Treating Myotonic Dystrophy Type 1” (UNIVERSITY OF SOUTHERN CALIFORNIA, priority 2012, published 2014)

Experiments:
[1] = system: MBNL1 and MBNL2 RNA splicing in DM1 myoblasts; test: Splicing assay (RT-PCR) for RNAs from DM1 myoblasts; assay type: cell-based, human
Protocol: A. Total RNA was isolated from normal (SKMC) myoblasts, untreated DM1 myoblasts and DM1 myoblasts treated with 50 μM RCN-001 or 50 μM Pentamidine for 17 hours and subjected to RT-PCR analysis using the indicated primers sets for MBNL1 and MBNL2 RNAs. GAPDH RNA was amplified in parallel as an internal control. The results of one of three experiments are shown. B. The relative levels of exon inclusion was measured by densitometry and tabulated as mean % exon inclusion +/− standard deviation.
Treatment of DM1 myoblasts with RCN-001 is also sufficient to rescue abnormal RNA splicing. Two RNAs were selected that show abnormal splicing in DM1 myoblasts: MBNL1 and MBNL2. DM1 myoblast were treated with 50 μM RCN-001 for 17 hours after which RNA was isolated and splice variants were analyzed as previously described (20-22).
Splicing assays for RNAs isolated from human myoblasts. DM1 patient myoblasts was treated with 50 μM of RCN-001 or Pentamidine for 17 h as described by Warf et al, 2009. Total RNA was isolated using the RNAeasy mini kit (Qiagen Inc., USA) following manufacture's protocol. cDNA was synthesized using 5 μg of total RNA using First-Strand cDNA synthesis kit (GE Healthcare). PCR amplification was carried out using 150 ng of cDNA for 35 cycles for each target RNA. The primers used for PCR amplification are as follows—
The relative band intensities were measured using densitometry analyses and the percent of exon inclusion was calculated as [exon inclusion/(exon inclusion+exon exclusion)]×100.

[2] = system: Clcn1, lbd3 and Serca-1 RNA splicing in HSALR mice; test: RT-PCR splicing analysis of skeletal muscle RNA of treated HSALR mice; assay type: in vivo; conditions: 40 mg/kg i.p. each day for 7 days
Text: A. Total RNA was isolated from age and gender matched wild-type mice, HSA^LR mice and HSA^LR mice treated with either saline or 40 mgs/kg of RCN-001 injected i.p. once a day for 7 days. Subsequent to treatment RNA was isolated from skeletal muscles and subjected to RT-PCR analysis using the indicated primers sets for Clcn1, Lbd3 and Serca-1 RNAs. GAPDH RNA was amplified in parallel as an internal control. The results of two experiments are shown. B. Bar graph representation of rescue achieved is shown. C. The relative levels of exon inclusion was measured by densitometry and tabulated as mean % exon inclusion +/− standard deviation.
Furthermore, CUG foci, abnormal RNA splicing, myotonia and reduced Clcn1 protein levels are reversed in HSA^LR mice treated with RCN-001: Age and gender matched HSA^LR mice were treated with either vehicle or 40/mgs/kg of RCN-001 injected i.p. each day for 7 days. After treatment CUG foci were examined and RNA isolated from skeletal muscle was subjected to RT-PCR analysis to examine the efficacy of RCN-001 in correcting the splice defects of Clcn1, lbd3 and Serca-1 RNAs, which are abnormally spliced in DM1 (20).
Treatment in HSALR mice. […]
The relative band intensities were quantified by densitometry analyses and the percent of exon inclusion was calculated as [exon inclusion/(exon inclusion+exon exclusion)]×100.

CCCCCCc1cc2cc(-c3nnc(-c4cccc(OC)c4)o3)c(=O)oc2cc1O [RCN-001]
rescue of abnormal splicing of MBNL1 and MBNL2 ([1]; 50 μM, 17 hours, RT-PCR): significantly rescues abnormal splicing of MBNL1 and MBNL2 | rescue of aberrant splicing of MBNL1, MBNL2, and IR in DM1 myoblasts ([1]; FIG. 6B, semi-quantitative RT-PCR): rescues aberrant splicing | rescue of splice defects of Clcn1, lbd3 and Serca-1 RNAs [2]: achieved rescue of splice defects that was comparable to results obtained with AON
